According to patent EP0416740A2, “Novel compounds with renin-inhibiting activity” (Beecham Group p.l.c., priority 1989, dated 1991):
Counter-ions that a name gives are not always drawn.

Molecular target: T1, human renin (Homo sapiens, UniProt P00797)
T1 construct: from tissue; host or cells: human plasma from blood of healthy volunteers
T1 sequence (P00797 67-406): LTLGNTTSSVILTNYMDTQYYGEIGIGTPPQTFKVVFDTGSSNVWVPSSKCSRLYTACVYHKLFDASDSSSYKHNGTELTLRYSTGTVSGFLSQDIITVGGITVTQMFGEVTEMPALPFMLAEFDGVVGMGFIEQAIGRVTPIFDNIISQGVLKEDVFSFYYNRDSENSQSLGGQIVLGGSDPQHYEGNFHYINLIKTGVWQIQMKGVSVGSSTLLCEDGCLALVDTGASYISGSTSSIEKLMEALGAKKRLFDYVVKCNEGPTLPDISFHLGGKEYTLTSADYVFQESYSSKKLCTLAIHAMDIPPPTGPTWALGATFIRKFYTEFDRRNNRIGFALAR
Test: biochemical
Details: not given
Experimental: In vitro human renin inhibition
Renin inhibitory activity was estimated as the percentage change in renin activity in human plasma in the presence and absence of compound. The source of plasma was blood taken from healthy volunteers. Renin activity was defined by the difference in angiotensin I levels between two halves of a sample, one incubated at 37^o and the other at 4^o for 2 h. Angiotensin I levels were measured using a ¹²⁵I- angiotensin I radioimmunoassay kit (NEN/Dupont, Stevenage). Results were calculated as the mean of at least two, duplicate determinations and IC₅₀ values were calculated by linear regression analysis of at least three concentrations of compound.

Structure (SMILES)	IC50 [nM]
CC(C)CNC(=O)C[C@H](O)[C@H](CC1CCCCC1)NC(=O)[C@H](CC(C)C)NC(=O)[C@H](Cc1ccccc1)NC(=O)CC1COc2ccc[n+]([O-])c21 (stereo partly drawn) [Example E2, 2,3-Dihydro-4-oxofuro[3,2-]pyridine-3-acetyl-Phe-Leu-ACHPA isobutylamide]	21

Same assay, conditions: renin activity in human plasma; angiotensin I difference between halves incubated at 37° and 4° for 2 h; linear regression of at least three concentrations; read-out: IC₅₀

Structure (SMILES)	IC50 [nM]
CC(C)C[C@H](NC(=O)[C@H](Cc1ccccc1)NC(=O)CCN1C(=O)COc2cccnc21)C(=O)N[C@@H](CC1CCCCC1)[C@@H](O)CC(=O)NCCCn1ccnc1 [Example E3, 2,3-Dihydro-3-oxo-4H-pyrido[3,2-b]-1,4-oxazine-4-propanoyl-Phe-Leu-ACHPA 3-(1-imidazolyl)propylamide .0.5(CHCl₃)]	26
CC(C)C[C@H](NC(=O)[C@H](Cc1ccccc1)NC(=O)CCN1C(=O)CSc2ccncc21)C(=O)N[C@@H](CC1CCCCC1)[C@@H](O)CC(=O)NCCCn1ccnc1 [Example E4, 2,3-Dihydro-3-oxo-4H-pyrido[4,3-b]-1,4-thiazine-4-propanoyl-Phe-Leu-ACHPA 3-(1-imidazolyl)propylamide]	4
CC(C)C[C@H](NC(=O)[C@H](Cc1ccccc1)NC(=O)CCN1C(=O)CSc2ncccc21)C(=O)N[C@@H](CC1CCCCC1)[C@@H](O)CC(=O)NCCCn1ccnc1 [Example E10, 2,3-Dihydro-3-oxo-4H-pyrido[2,3-b]-1,4-thiazine-4-propanoyl-Phe-Leu-ACHPA 3-(1-imidazolyl)propylamide .HCl]	6
CC(C)C[C@H](NC(=O)[C@H](Cc1ccccc1)NC(=O)CCN1C(=O)CS(=O)(=O)c2ncccc21)C(=O)N[C@@H](CC1CCCCC1)[C@@H](O)CC(=O)NCCCn1ccnc1 [Example E11, 2,3-Dihydro-1,1,3-trioxo-4H-pyrido[2,3-b]-1,4-thiazine-4-propanoyl-Phe-Leu-ACHPA 3-(1-imidazolyl)propylamide .HCl.1.5H₂O]	12
CC(C)C[C@H](NC(=O)[C@H](Cc1ccccc1)NC(=O)CCCN1Cc2ccncc2C1=O)C(=O)N[C@@H](CC1CCCCC1)[C@@H](O)CC(=O)NCCCn1ccnc1 [Example E14, 6,7-Dihydro-5H-7-oxo-pyrrolo[3,4-c]pyridine-6-butanoyl-Phe-Leu-ACHPA 3-(1-imidazolyl)propylamide.2HCl]	14
